# Laboratory results: US8822520B2, “Substituted bicyclic HCV inhibitors” (Presidio Pharmaceuticals, Inc., priority 2010, dated 2014)
# Test system: HCV genotype 1b replicon in Huh 7 cells (HCV 1b_Huh-Luc/Neo-ET cell line)
# Experiment: HCV replicon assay (luciferase readout)
# Assay type: cell-based
# Conditions: Hepatitis C virus, Huh-7; Table 1; EC50 range class; replicon luciferase, 72 h incubation, average EC50; read-out: Inhibition of HCV genotype 1b
# Description: Biological activity of the compounds of the invention was determined using an HCV replicon assay. The HCV 1b_Huh-Luc/Neo-ET cell line persistently expressing a bicistronic genotype 1b replicon in Huh 7 cells was obtained from ReBLikon GMBH. This cell line was used to test compound inhibition using luciferase enzyme activity readout as a measurement of compound inhibition of replicon levels.
# On Day 1 (the day after plating cells), each compound is added in triplicate to the cells. Plates are incubated for 72 h prior to determining luciferase levels. Enzyme activity was measured using a Bright-Glo Kit (cat. number E2620) manufactured by Promega Corporation. The following equation was used to generate a percent control value for each compound. % Control=(Compound Luciferase Level/Control Luciferase Level)*100
# The EC50 value was determined using GraphPad Prism and the following equation: Y=Bottom asymptote+(Top asymptote−Bottom asymptote)/(1+10^((Log EC50−X)*HillSlope))
# EC50 values of compounds are determined several times in the replicon assay to generate average EC50 values.
row,Compound,EC50
1,COCCOc1cc(-c2cnc([C@@H]3CCCN3C(=O)[C@@H](NC(=O)OC)C(C)C)[nH]2)ccc1-c1ccc(-c2cnc([C@@H]3CCCN3C(=O)[C@@H](NC(=O)OC)C(C)C)[nH]2)cc1OCCOC [Compound 1],< 1 nM
2,COCCOc1c(-c2ccc(-c3cnc([C@@H]4CCCN4C(=O)[C@@H](NC(=O)OC)C(C)C)[nH]3)cc2)ccc(-c2cnc([C@@H]3CCCN3C(=O)[C@@H](NC(=O)OC)C(C)C)[nH]2)c1OCCOC [Compound 2],< 1 nM
3,CC[C@H](C)C(NC(=O)OC)C(=O)N1CCC[C@H]1c1ncc(-c2ccc(-c3ccc(-c4cnc([C@@H]5CCCN5C(=O)[C@@H](NC(=O)OC)[C@@H](C)CC)[nH]4)c(OCCOC)c3OCCOC)cc2)[nH]1 (some centres unmarked) [Compound 3],< 1 nM
4,COCCOc1c(-c2ccc(-c3cnc([C@@H]4CCCN4C(=O)[C@@H](NC(=O)OC)C4CCCC4)[nH]3)cc2)ccc(-c2cnc([C@@H]3CCCN3C(=O)[C@@H](NC(=O)OC)C3CCCC3)[nH]2)c1OCCOC [Compound 4],< 1 nM
5,COCCOc1cc(-c2cnc([C@@H]3CCCN3C(=O)[C@H](C)NC(=O)OC)[nH]2)ccc1-c1ccc(-c2cnc([C@@H]3CCCN3C(=O)[C@H](C)NC(=O)OC)[nH]2)cc1OCCOC [Compound 6],10 to 999 nM
6,CC[C@H](C)C(NC(=O)OC)C(=O)N1CCC[C@H]1c1ncc(-c2ccc(-c3ccc(-c4cnc([C@@H]5CCCN5C(=O)C(NC(=O)OC)[C@@H](C)CC)[nH]4)cc3OCCOC)c(OCCOC)c2)[nH]1 (some centres unmarked) [Compound 7],< 1 nM
7,COCCOc1cc(-c2cnc([C@@H]3CCCN3C(=O)[C@@H](NC(=O)OC)C3CCCC3)[nH]2)ccc1-c1ccc(-c2cnc([C@@H]3CCCN3C(=O)[C@@H](NC(=O)OC)C3CCCC3)[nH]2)cc1OCCOC [Compound 8],< 1 nM
8,COCCOc1cc(-c2cnc([C@@H]3CCCN3C(=O)[C@@H](NC(=O)OC)C3CCCCC3)[nH]2)ccc1-c1ccc(-c2cnc([C@@H]3CCCN3C(=O)[C@@H](NC(=O)OC)C3CCCCC3)[nH]2)cc1OCCOC [Compound 9],< 1 nM
9,COCCOc1c(-c2ccc(-c3cnc([C@@H]4CCCN4C(=O)[C@H](C)NC(=O)OC)[nH]3)cc2)ccc(-c2cnc([C@@H]3CCCN3C(=O)[C@H](C)NC(=O)OC)[nH]2)c1OCCOC [Compound 10],< 1 nM
10,COCCOc1c(-c2ccc(-c3cnc([C@@H]4CCCN4C(=O)C(NC(=O)OC)[C@@H](C)OC)[nH]3)cc2)ccc(-c2cnc([C@@H]3CCCN3C(=O)C(NC(=O)OC)[C@@H](C)OC)[nH]2)c1OCCOC (some centres unmarked) [Compound 12],1 to 9.9 nM
11,COCCOc1c(-c2ccc(-c3cnc([C@@H]4CCCN4C(=O)[C@@H](NC(=O)OC)C(C)(C)C)[nH]3)cc2)ccc(-c2cnc([C@@H]3CCCN3C(=O)[C@@H](NC(=O)OC)C(C)(C)C)[nH]2)c1OCCOC [Compound 13],1 to 9.9 nM
12,COCCOc1c(-c2ccc(-c3cnc([C@@H]4CCCN4C(=O)[C@@H](NC(=O)OC)C4CCOCC4)[nH]3)cc2)ccc(-c2cnc([C@@H]3CCCN3C(=O)[C@@H](NC(=O)OC)C3CCOCC3)[nH]2)c1OCCOC [Compound 14],1 to 9.9 nM
13,COCCOc1c(-c2ccc(-c3cnc([C@@H]4CCCN4C(=O)[C@@H](c4ccccc4)N(C)C)[nH]3)cc2)ccc(-c2cnc([C@@H]3CCCN3C(=O)[C@@H](c3ccccc3)N(C)C)[nH]2)c1OCCOC [Compound 15],< 1 nM
14,COCCOc1c(-c2ccc(-c3cnc([C@@H]4CCCN4C(=O)[C@@H](c4ccccc4)N4CCCC4)[nH]3)cc2)ccc(-c2cnc([C@@H]3CCCN3C(=O)[C@@H](c3ccccc3)N3CCCC3)[nH]2)c1OCCOC [Compound 16],1 to 9.9 nM
15,COCCOc1c(-c2ccc(-c3cnc([C@@H]4CCCN4C(=O)[C@H](NS(C)(=O)=O)c4ccccc4)[nH]3)cc2)ccc(-c2cnc([C@@H]3CCCN3C(=O)[C@H](NS(C)(=O)=O)c3ccccc3)[nH]2)c1OCCOC [Compound 17],< 1 nM
16,COCCOc1c(-c2ccc(-c3cnc([C@@H]4CCCN4C(=O)[C@H](NC(=O)OC)C(C)C)[nH]3)cc2)ccc(-c2cnc([C@@H]3CCCN3C(=O)[C@H](C)NC(=O)OC)[nH]2)c1OCCOC [Compound 18],1 to 9.9 nM
17,CC[C@H](C)[C@H](NC(=O)OC)C(=O)N1CCC[C@H]1c1ncc(-c2ccc(-c3ccc(-c4cnc([C@@H]5CCCN5C(=O)[C@@H](NC(=O)OC)C(C)C)[nH]4)cc3)c(OCCOC)c2OCCOC)[nH]1 [Compound 19],< 1 nM
18,COCCOc1c(-c2ccc(-c3cnc([C@@H]4CCCN4C(=O)[C@H](NC(=O)OC)c4ccccc4)[nH]3)cc2)ccc(-c2cnc([C@@H]3CCCN3C(=O)[C@H](NC(=O)OC)c3ccccc3)[nH]2)c1OCCOC [Compound 20],< 1 nM
19,COCCOc1c(-c2ccc(-c3cnc([C@@H]4CCCN4C(=O)[C@H](NC(=O)OC)c4ccsc4)[nH]3)cc2)ccc(-c2cnc([C@@H]3CCCN3C(=O)[C@H](NC(=O)OC)c3ccsc3)[nH]2)c1OCCOC [Compound 21],< 1 nM
20,COCCOc1c(-c2ccc(-c3cnc([C@@H]4CCCN4C(=O)[C@H](NC(=O)OC)c4cccs4)[nH]3)cc2)ccc(-c2cnc([C@@H]3CCCN3C(=O)[C@H](NC(=O)OC)c3cccs3)[nH]2)c1OCCOC [Compound 22],< 1 nM
21,COCCOc1c(-c2ccc(-c3cnc([C@@H]4CCCN4C(=O)[C@H](NC(C)=O)c4ccccc4)[nH]3)cc2)ccc(-c2cnc([C@@H]3CCCN3C(=O)[C@H](NC(C)=O)c3ccccc3)[nH]2)c1OCCOC [Compound 23],< 1 nM
22,CNC(=O)N[C@@H](C(=O)N1CCC[C@H]1c1ncc(-c2ccc(-c3ccc(-c4cnc([C@@H]5CCCN5C(=O)[C@H](NC(=O)NC)c5ccccc5)[nH]4)c(OCCOC)c3OCCOC)cc2)[nH]1)c1ccccc1 [Compound 24],< 1 nM
23,COCCOc1cc(-c2cnc([C@@H]3CCCN3C(=O)C(NC(=O)OC)[C@@H](C)OC)[nH]2)ccc1-c1ccc(-c2cnc([C@@H]3CCCN3C(=O)C(NC(=O)OC)[C@@H](C)OC)[nH]2)cc1OCCOC (some centres unmarked) [Compound 25],1 to 9.9 nM
24,COCCOc1cc(-c2cnc([C@@H]3CCCN3C(=O)[C@H](NC(=O)OC)c3ccccc3)[nH]2)ccc1-c1ccc(-c2cnc([C@@H]3CCCN3C(=O)[C@H](NC(=O)OC)c3ccccc3)[nH]2)cc1OCCOC [Compound 26],< 1 nM
25,COCCOc1c(-c2ccc(-c3cnc([C@@H]4CCCN4C(=O)[C@@H](NC(=O)OC)C(C)C)[nH]3)cc2)ccc(-c2cnc([C@@H]3CCCN3C(=O)[C@H](COC)NC(=O)OC)[nH]2)c1OCCOC [Compound 27],< 1 nM
26,COCCOc1c(-c2ccc(-c3cnc([C@@H]4CCCN4C(=O)[C@@H](NC(=O)OC)C(C)C)[nH]3)cc2)ccc(-c2cnc([C@@H]3CCCN3C(=O)[C@@H](NC(=O)OC)[C@@H](C)OC)[nH]2)c1OCCOC [Compound 28],< 1 nM
27,COCCOc1c(-c2ccc(-c3cnc([C@@H]4CCCN4C(=O)[C@@H](NC(=O)OC)C(C)C)[nH]3)cc2)ccc(-c2cnc([C@@H]3CCCN3C(=O)[C@@H](NC(=O)OC)C3CCCC3)[nH]2)c1OCCOC [Compound 29],< 1 nM
28,COCCOc1c(-c2ccc(-c3cnc([C@@H]4CCCN4C(=O)[C@@H](NC(=O)OC)C(C)C)[nH]3)cc2)ccc(-c2cnc([C@@H]3CCCN3C(=O)[C@H](NC(=O)OC)c3ccccc3)[nH]2)c1OCCOC [Compound 30],< 1 nM
29,COCCOc1c(-c2ccc(-c3cnc([C@@H]4CCCN4C(=O)[C@@H](NC(=O)OC)C(C)C)[nH]3)cc2)ccc(-c2cnc([C@@H]3CCCN3C(=O)[C@H](NC(=O)OC)c3ccsc3)[nH]2)c1OCCOC [Compound 31],< 1 nM
